Reference: publication PMC6349869, “The palladacycle complex AJ-5 induces apoptotic cell death while reducing autophagic flux in rhabdomyosarcoma cells” (Cell Death Discovery, 2019)
pIC50: −log10 of the molar value.

How the values were obtained:
Type in all cases: cell-based, human
[1] = tested on: SW1353 cells; experiment: MTT cell viability assay, SW1353 chondrosarcoma; settings: 48 h
Description: RH30 human aRMS cells (kindly provided by Associate Professor Judith Davie, Southern Illinois University), AX-OH-1 human aRMS and FL-OH-1 human eRMS cells (kindly provided by Professor Stefan Bath, University of Cape Town) were cultured in Roswell Park Memorial Institute Medium (RPMI)-1640 (Sigma Aldrich, Missouri, USA). […] Cell morphology was monitored using an Olympus CKX41 inverted microscope (MSAC Ltd, UK) and imaged with an EVOS™ XL AMEX1000 Core Imaging System (Thermo Fisher Scientific, Massachusetts, USA).
(§1) Cells were seeded in 96-well plates and treated the next day with a range of AJ-5 concentrations (0.1–1.0 μM) or vehicle ([…]) for 48 h. Cell viability was measured using the 3-(4,5-dimethylthiazol-2-yl)-2,5-diphenyl-trazolium bromide (MTT) assay (11465007001; Sigma Aldrich) according to the manufacturer’s instructions. Mean cell viability was calculated as a percentage of the mean vehicle control. At least three independent experiments in quadruplicate were performed from which the half maximal inhibitory concentration (IC50) was determined using GraphPad Prism version 6.0 (GraphPad Software, California, USA). The selectivity index (SI) was determined by dividing the IC50 of a normal cell line by the IC50 of a cancer cell line.

[2] = tested on: HT1080 cells; experiment: MTT cell viability assay, HT1080 fibrosarcoma; settings: 48 h
[3] = tested on: RH30 and RD cells; experiment: Annexin V-FITC/PI assay; settings: IC50
Description: Cells were seeded, trypsinized, washed and counted as described for cell cycle analysis. The FITC Annexin V/Dead Cell Apoptosis kit (V13242; Thermo Fisher Scientific) was used according to the manufacturer's instructions. A negative control of unstained cells and positive controls of cells treated with 3% formaldehyde for 30 min on ice and stained with either PI or Annexin V were used to gate the flow cytometer for viable, early apoptotic, late apoptotic, and necrotic cell populations. Samples were subjected to FACS analyses as described for cell cycle analysis. Data were obtained and analysed using CellQuest Pro version 5.2.1. software.

[4] = tested on: SW1353, SW872, SW982, HT1080 and MG-63 cells; experiment: Selectivity index of sarcoma subtype cell lines (MTT); settings: relative to the combined IC50 values for normal fibroblasts (FG0 and DMB); SW1353, SW872, SW982, HT1080, MG-63
Description: as §1
Fig. S2 AJ-5 is cytotoxic in a range of sarcoma subtypes. […] Graphs show mean cell viability as a percentage of vehicle control ± SEM for each concentration of AJ-5 determined from three independent experiments performed in quadruplicate. […] (B) Selectivity indices (SIs) were determined for each cell line by dividing the IC50 of each non-malignant cell line (Fig. 1C) including normal fibroblast cell lines (FG0 and DMB) and mesenchymal stem cell line (A10021501) by the IC50 of each sarcoma cell line. […] Colonies were stained with crystal violet and images from three independent repeats were quantified using the ImageJ plugin ColonyArea. […]

Structure (SMILES): CC(C)c1cccc(C(C)C)c1[N+]1=Cc2cccc[c]2[Pd-2]1([Cl])[P+](CC[P+](c1ccccc1)(c1ccccc1)[Pd-2]1([Cl])[c]2ccccc2C=[N+]1c1c(C(C)C)cccc1C(C)C)(c1ccccc1)c1ccccc1 (stereo not shown) [AJ-5]
- pIC50 [1]: > 6.52
- pIC50 [2]: > 6.52
- Cell death (Annexin V-FITC/PI) [3]: induces apoptotic and necrotic cell death
- Selectivity index (SI) [4]: > 2
